Where “and” joins values, the source holds several entries; their conditions need not be identical. Equal entries are not always repeated.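 How tested: cells in 96-well plates exposed to compound for 48 hours at five concentrations. The concentration for 50% growth inhibition is given as GI50. TGI: total growth inhibition.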
Assays:
Test in all cases: NCI anticancer screen, dose series, 48 h
786-0 renal = tested on: 786-0 renal
BT-549 breast = tested on: BT-549 breast
EKVX NSCLC = tested on: EKVX NSCLC
HCT-15 colon = tested on: HCT-15 colon
LOX IMVI melanoma = tested on: LOX IMVI melanoma
NCI-H23 lung = tested on: NCI-H23 lung
OVCAR-5 ovarian = tested on: OVCAR-5 ovarian
OVCAR-8 ovarian = tested on: OVCAR-8 ovarian
SF-539 CNS = tested on: SF-539 CNS
SK-OV-3 ovarian = tested on: SK-OV-3 ovarian
TK-10 renal = tested on: TK-10 renal
NCI-H460 lung = tested on: NCI-H460 lung

| SMILES | TGI (786-0 renal) | TGI (BT-549 breast) | TGI (EKVX NSCLC) | TGI (HCT-15 colon) [µM] | TGI (LOX IMVI melanoma) | TGI (NCI-H23 lung) [µM] | TGI (OVCAR-5 ovarian) [µM] | TGI (OVCAR-8 ovarian) [µM] | TGI (SF-539 CNS) | TGI (SK-OV-3 ovarian) | TGI (TK-10 renal) [µM] | TGI (NCI-H460 lung) [µM] | GI50 (BT-549 breast) | GI50 (EKVX NSCLC) | GI50 (OVCAR-5 ovarian) | GI50 (SF-539 CNS) | GI50 (SK-OV-3 ovarian) | GI50 (TK-10 renal) |
| --- | --- | --- | --- | --- | --- | --- | --- | --- | --- | --- | --- | --- | --- | --- | --- | --- | --- | --- |
| O=C1CCc2ccc(O)c(c2)Oc2ccc(cc2)C(Sc2ccccc2)CCO1 (stereo not drawn) | 29.6 µM | 28.7 µM | 28.5 µM | 29.9 | 25.8 µM | 27.3 | 35.3 | 37.3 | 31.4 µM | > 100 µM | 31.6 | – | – | – | – | – | – | – |
| CN(C)c1c(C2OC(CO)C(O)C2O)c(=O)c1=O (stereo not drawn) | > 100 µM | > 100 µM | > 100 µM | > 100 | > 100 µM | > 100 | > 100 | > 100 | > 100 µM | > 100 µM | > 100 | > 100 | – | – | – | – | – | – |
| Cc1ccc2c(=O)cc(-c3ccc(C)s3)[nH]c2n1 | > 100 µM | > 100 µM | > 100 µM | > 37.5 | > 42.9 µM | – | > 100 | > 28.3 | 0.972 µM | > 100 µM | > 100 | > 100 | – | – | – | – | – | – |
| COC(C)(C)/C=C/c1[nH]c2ccccc2c1CC(=O)NCCc1cn(C(c2ccccc2)(c2ccccc2)c2ccccc2)cn1 | 17.1 µM | > 75.7 µM | > 100 µM | > 100 | > 51.3 µM | 22.9 | > 30.5 | > 100 | 14.1 µM | > 34.9 µM | > 40.5 | > 23.5 | – | – | – | – | – | – |
| COC(=O)CCNC(=O)OCc1ccccc1 | > 100 µM | > 100 µM | > 100 µM | > 100 | > 100 µM | > 100 | > 100 | > 100 | > 100 µM | > 100 µM | > 100 | > 100 | – | – | – | – | – | – |
| Cc1cccc2sc(-c3ccc(O)cc3)nc12 | – | 25.2 µM | 16.8 µM | 26 | 49.6 µM | 31.9 | 30.2 | 31.8 | 37.8 µM | 35.4 µM | 42.1 | 33.3 | – | – | – | – | – | – |
| CCCCCc1c(CCCC)c(=O)[nH]c2nc(NC(=O)CCCC)ccc12 | > 100 µM | > 100 µM | > 100 µM | > 100 | > 100 µM | > 100 | > 100 | > 100 | > 100 µM | > 100 µM | > 100 | > 100 | – | – | – | – | – | – |
| CC1=C(O)c2ccccc2C(=O)C1=O | > 100 µM | 99.3 µM | > 100 µM | > 100 | > 100 µM | > 100 | > 100 | > 100 | > 100 µM | > 100 µM | > 100 | > 100 | – | – | – | – | – | – |
| COc1ccc(COC(=O)NCC(=O)NC(C)C(=O)NC(Cc2ccccc2)C(=O)OCc2ccccc2)cc1 (stereo not drawn) | 73.1 µM and 36 µM | 48.1 µM and > 100 µM | 56.6 µM and > 100 µM | > 100 | 79.1 µM and 38.8 µM | > 100 | > 100 | > 100 | 25.1 µM and > 100 µM | 42.5 µM and > 100 µM | > 100 | 22.7 | 22.1 µM and > 100 µM | 23.4 µM and 48.7 µM | 36.3 µM and > 100 µM | 12.6 µM and 28.7 µM | 22.9 µM and > 100 µM | 39.5 µM and > 100 µM |
| CCC1(c2ccc(N3C(=O)c4cc(OC)c(OC)cc4C3=O)cc2)CCC(=O)NC1=O (stereo not drawn) | > 10 µM | > 10 µM | > 10 µM | > 10 | > 10 µM | > 10 | > 10 | > 10 | > 10 µM | > 10 µM | > 10 | > 10 | – | – | – | – | – | – |
| COc1ccccc1C(O)[C@@H]1C[C@@H]2[C@H]3CC[C@@](C)([C@@H]2O1)C3(C)C (stereo partly drawn) | 32.7 µM | 42.2 µM | > 100 µM | 57.7 | 35.8 µM | 50.5 | 38.6 | 38.9 | 24.2 µM | 87.1 µM | 50.7 | 36.3 | – | – | – | – | – | – |
| COc1ccc(N=NC(=O)NC(CC(C)C)C(=O)NCC(=O)O)cc1 (stereo not drawn) | > 100 µM | > 100 µM | > 100 µM | > 100 | > 100 µM | > 100 | > 100 | > 100 | 29.7 µM | > 100 µM | > 100 | > 58.7 | – | – | – | – | – | – |
| O=C1Nc2nccnc2C(=O)N2CCC[C@@H]12 | > 100 µM | > 100 µM | > 100 µM | > 100 | > 100 µM | > 100 | > 100 | > 100 | > 100 µM | > 100 µM | > 100 | > 100 | – | – | – | – | – | – |
| OC(CN(CCCl)CCCl)C(O)C(O)C(O)CN(CCCl)CCCl (stereo not drawn) | > 100 µM | > 100 µM | > 100 µM | > 100 | > 100 µM | > 100 | > 100 | > 100 | > 100 µM | > 100 µM | > 100 | > 100 | – | – | – | – | – | – |
| CCN(CC)CCN(C)c1ccc(CO)c2c1C(=O)c1ccccc1S2=O (stereo not drawn) | 3.22 µM | 26.7 µM | 13.6 µM | 12.9 | 3.66 µM | 8.29 | 24.5 | 3.5 | 3.61 µM | 32.4 µM | 32.3 | 27.8 | – | – | – | – | – | – |
| COc1cccc(C2SC(N)=Nc3c2c(C)nn3C(=O)Cc2ccccc2)c1 (stereo not drawn) | > 100 µM | > 100 µM | > 100 µM | > 100 | > 100 µM | > 100 | – | > 100 | > 100 µM | > 100 µM | > 100 | > 100 | – | – | – | – | – | – |
| COc1cccc(/C=C2\S/C(=N/Nc3nc(C)c(C)s3)NC2=O)c1O | > 100 µM | > 100 µM | > 100 µM | > 100 | > 100 µM | > 100 | > 100 | > 100 | > 100 µM | > 100 µM | > 100 | > 100 | – | – | – | – | – | – |
| Clc1ccc(CCN[C@H]2CCCC[C@H]2N2CCCC2)cc1Cl | 77 µM | 59.9 µM | > 100 µM | 49.5 | 32.4 µM | 58.8 | 78.1 | > 100 | 75.3 µM | 78.2 µM | 22.9 | 58.4 | – | – | – | – | – | – |

Reference: PubChem BioAssay (NCI)
